From US4055640A, “Compositions and methods for controlling the growth of bacteria, fungi and algae using certain derivatives of N-(2,2-dichlorovinyl)salicylamides” (Nippon Kayaku Co., Ltd., priority 1975, dated 1977) come the findings set out here.

Molecules are shown by their SMILES. In brackets after ≈: the same amount, converted by molar mass. Counter-ions that a name gives are not always drawn.

The term MIC denotes the least concentration at which growth counts as inhibited.

In data set [1] the test system is Fusarium wilt of cucumber. The data set can be described thus: Exterminating test on Fusarium wilt of cucumber (Experimental Example 4). In kind it is in vivo, Fusarium oxysporum f, cucumerinum. Particulars: Fusarium, soil, 336 h, 500 ppm, soil drench 100 ml per pot, two weeks; read-out: Percentage of healthy seedlings. Summed up: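 Pots of steam-sterilized soil mixed with 20 g infested soil, sown with 18 cucumber seeds (Tokiwazibai), drenched with 100 ml aqueous suspension of 80% wettable powder. Benlate 50% wettable powder run as control. Disease scored two weeks after planting as percentage of healthy seedlings.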

Data set [2] deals with Xanthomonas citri (citrus canker). The data set can be described thus: Exterminating test on citrus canker (Experimental Example 6). In kind it is in vivo. Particulars: Xanthomonas citri, 336 h, read-out: Effect Index, 1,000 ppm, 2 weeks after inoculation. Summed up:
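Four-year-old potted summer orange seedlings sprayed with diluted 80% wettable powder, then needle-inoculated on leaves with Xanthomonas citri and held 24 h moist at 25 °C before greenhouse. Disease attack scored 2 weeks post-inoculation and expressed as an Effect Index.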

Data set [3] deals with summer orange seedlings. The data set can be described thus: Phytotoxicity on summer orange seedlings (Experimental Example 6). Format: in vivo. To be noted: 1,000 ppm.
The test system of data set [4] is Aspergillus niger, Penicillium citrinum, Cladosporium harbarum and chaetomium globosum. In words: Degree of growth inhibition of fungi on treated beach plates (Example 25). Format: cell-based. Also noted: scale not given here. To be noted: numerical rating, 2 weeks. Summed up:
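Beech plates 5 cm square and 5 mm thick were dipped for 2 min in emulsifiable concentrate diluted 400- and 800-fold in water, then dried 24 h at room temperature. Plates were set on agar, sprayed with fungal spore suspensions and incubated 2 weeks at 28 °C and 95% humidity; growth inhibition was scored on a numerical rating.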

The subject of data set [5] is Chaetomium globosum. In words: Minimum inhibitory concentration, dilution methods (Example 14). In kind it is cell-based. From the text:
(§1) Bacteriocidal activity and fungicidal activity of the active compounds of the present invention were examined by potato-dextrose agar dilution method, [2] waxman's liquid medium dilution method or [3] glucose bouillon medium dilution method. The results are shown in Table 4 below as the minimum inhibitory concentration (the minimum concentration of active compound found to produce 100% control of the test bacteria and fungi).

The test system of data set [6] is Geotrichum candium. The data set is described as above. Format: cell-based.
Text: as §1

Data set [7] deals with Pseudomonas fluorescens. Described as above. In kind it is cell-based.
Text: as §1

Data set [8] has as its system Aspergillus niger, Penicillium citrinum, Cladosporium harbarum and chaetomium globosum. In words: Degree of growth inhibition of fungi on treated beach plates (Example 17). Format: cell-based. To be noted: numerical rating, 2 weeks. Also noted: scale not given here. Summed up: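 Beech plates were dipped for 2 minutes in emulsifiable concentrate diluted 400- and 800-fold in water, then dried for 24 hours. They were laid on agar and sprayed with spores of each fungus, then incubated at 95% humidity and 28° C for 2 weeks. Growth inhibition was scored on a numerical rating scale.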

Data set [9] concerns Aspergillus niger. In words: Growth inhibition zone around treated cotton cloth (Example 18). In kind it is cell-based. To be noted: emulsifiable concentrate diluted 1000 times. Here is the method: (§2) The emulsifiable concentrates which were prepared by Example 10 were diluted with water 1000 times to form an emulsion. A cloth of cotton was soaked into each emulsion for 2 minutes. The clothes were dried at room temperature and cut into a square of which a side was 1 cm long. Each kind of test bacteria and fungi was inoculated, separately on plates of potato-agar and one square cloth was placed on each of such plates. Test bacteria and fungi were cultivated at 28° C for 4 days. The width of the region of growth-inhibition which was formed a circumference of the cloth was examined.

Data set [10] concerns Bacillus subtilis. Described as above. In kind it is cell-based. To be noted: emulsifiable concentrate diluted 1000 times. On the procedure: as §2
In data set [11] the test system is Penicillium Citrinum. The data set is described as above. To be noted: emulsifiable concentrate diluted 1000 times. In kind it is cell-based. On the procedure: as §2
For data set [12], the system named is Staphylococcus aureus. The data set is described as above. Format: cell-based. Particulars: emulsifiable concentrate diluted 1000 times. Here is the method: as §2
In data set [13] the test system is bacteria gathered from circular water system. In words: Degree of propagation on slime test boards (Example 19). In kind it is cell-based. Also noted: key: -: no propagation; +: the area of propagation is 1 - 25% on the slime test boards.; ++: the area of propagation is 26 - 50% on the slime test boards.; +++: the area of propagation is 51 - 75% on the slime test boards.; ++++: the area of propagation is 76 - 100% on the slime test boards. Here is the method: (§3) Zero point zero two (0.02) part of active compounds in the form of 10% water soluble concentrate which was prepared by Example 13 was added into 100 parts of Waxman's liquid medium. Pieces of wood and iron (hereafter referred to as the slime test boards) were soaked into the Waxman's liquid medium. The bacteria which were gathered from circular water system were inoculated upon the Waxman's liquid medium and incubated at 27° C-34° C by shaking culture. The degree of propagation of the bacteria on the slime test boards was examined.
(§4) The growth-inhibiting activity of active compounds against the fungi and the green algae was also examined by the same method as mentioned above.
(§5) The degree of propagation of the bacteria, fungi or green algae on the slime test boards is defined in terms of the following symbols.

The test system of data set [14] is fungi. The data set is described as above. Format: cell-based. The arrangement: key: -: no propagation; +: the area of propagation is 1 - 25% on the slime test boards.; ++: the area of propagation is 26 - 50% on the slime test boards.; +++: the area of propagation is 51 - 75% on the slime test boards.; ++++: the area of propagation is 76 - 100% on the slime test boards. Here is the method:
as §3, §4, §5

Data set [15] deals with green algae. Described as above. Also noted: key: -: no propagation; +: the area of propagation is 1 - 25% on the slime test boards.; ++: the area of propagation is 26 - 50% on the slime test boards.; +++: the area of propagation is 51 - 75% on the slime test boards.; ++++: the area of propagation is 76 - 100% on the slime test boards. In kind it is cell-based. Here is the method: as §3, §4, §5

Setting [16] is: (1) potato-dextrose agar dilution method.
The mark [17] stands for this setting: (2) waxman's liquid medium dilution method.

Turning to `CC(=O)Oc1ccccc1C(=O)NC=C(Cl)Cl` [Compound No. 6, O-acetyl-N-(2,2-dichlorovinyl) salicylamide], the pest or weed control at 500 ppm in data set [1] worked out at 83%. The pest or weed control at 1000 ppm in data set [2] turned out to be 96.1%. Further, the Phytotoxicity result in data set [3] is listed as “Nil”. Also, the “Degree of growth inhibition” value in data set [4] (0.0125 %) and in data set [4] (0.025 %) was 3 in each case.

Consider `O=C(NC=C(Cl)Cl)c1ccccc1O` [Compound No. 1, N-(β,β-dichlorovinyl) salicylamide], for which the Phytotoxicity result in data set [3] is listed as “Nil”. Further, the MIC in data set [5] (setting [16]) is 5 µg/mL (≈ 21.5 µM); in data set [5] (setting [17]), 10 µg/mL (≈ 43.1 µM); in data set [6] (setting [16]) it was 10 µg/mL (≈ 43.1 µM); in [6] (setting [17]), 20 µg/mL (≈ 86.2 µM); in data set [7] (Pseudomonas fluorescens, (2) waxman's liquid medium dilution method) it was 40 µg/mL (≈ 172 µM). For the same compound, the minimum inhibitory concentration in [7] (setting [16]) was found to be 40 mc g/ml.

`O=C(NC=C(Cl)Cl)c1ccccc1O` [Compound No. 20, sodium salt of N-(β,β-dichlorovinyl) salicylamide]: the “Degree of growth inhibition” value in data set [8] (0.0125 %) and in data set [8] (0.025 %) was 3 in each case. Besides, the “width of the growth inhibition zone” value was determined as 6 mm in data set [9], 8 mm in data set [10], 7 mm in data set [11] and 7 mm in data set [12]. The Degree of propagation result in data set [13] (7th day), in data set [13] (14th day), in data set [13] (21st day), in [14] (7th day), in data set [14] (14th day) and in data set [14] (21st day) was “-” throughout. In addition, the Degree of propagation entry in [15] (7th day), in data set [15] (14th day) and in data set [15] (21st day) was “-” throughout.
